According to patent US20230338363A1, “COMBINATION CHEMO-IMMUNOTHERAPY FOR PANCREATIC CANCER USING THE IMMUNOGENIC EFFECTS OF AN IRINOTECAN SILICASOME NANOCARRIER PLUS ANTI-PD-1” (The Regents of the University of California, priority 2020, published 2023):
Structures can show the parent of a compound that is named as a salt.

Columns and labels:
[1] = test system: KPC cells; experiment: Autophagy (LC3B, p62) and PD-L1 expression by IF staining and immunoblotting; format: cell-based, mouse
Method: KPC cells were seeded in the µ-Slide 8 well. After cell attachment, the cells were treated by IRIN at 300 µM for 24 h. Control treatments included exposure to PBS, chloroquine (32 µM), rapamycin (100 nM) and IFN-γ (10 ng/ml). Before IF staining, the cells were washed with PBS and fixed with 4% paraformaldehyde at RT for 15 minutes. Cells were treated in 1% BSA (blocking reagent) plus 0.2% triton-X100 in PBS for 30 minutes. Subsequently, the cells were incubated with primary antibody that recognizes LC3B (Cell Signaling #2775, 1:200) or p62/SQSTM1 (Cell Signaling #23214, 1:800) in 1% BSA containing PBS solution at 4° C. overnight. The sample was washed twice in PBS and further stained using an Alexa Fluor® 488 conjugated goat anti-rabbit secondary antibody (Thermo Fisher, A-11008, 1:1000) and 5 µg/mL Hoechst 33342 dye for 1 h. Cell surface staining for PD-L1 assessment was carried out in fixed (4% paraformaldehyde) cells, using a staining process similar to the above protocol. Primary PD-L1 antibody (Abcam, ab213480, 1: 500) and Alexa Fluor® 594 conjugated goat anti-rabbit secondary antibody (Thermo Fisher, A-11012, 1:1000) were used. The cells were visualized using a Leica SP8-MD confocal microscope under the 100x objective lens.
To confirm the confocal staining results for LC3B, p62 and PD-L1, western blotting experiments were performed in KPC cells exposed to IRIN (300 µM) or OX (500 µM) for 24 hr. Another experiment also looked at the dose-dependent effect of IRIN at concentrations of 75, 150, 300 and 600 µM for 24 h. Briefly, ~2×10^5 KPC cells per well were seeded in 6 well-plates. After drug exposure, KPC cells were harvested and treated with cold RIPA lysis buffer (Cell Signaling # 9806S), supplemented with a cocktail of protease and phosphatase inhibitors (Cell Signaling #5872) and incubated on ice for 30 mins. After centrifugation of the lysates at 12,000 rpm for 10 min, protein concentration was quantified by a Bradford assay (Biorad). Equal amounts of protein in the supernatants were loaded onto a 10-20% Tris-glycine SDS-PAGE gel (Invitrogen, Grand Island, NY). The proteins were subsequently transferred to a PVDF membrane. The membrane was blocked with 5% non-fat dry milk/TBST, before incubation with primary and HRP-conjugated secondary antibodies. The primary antibodies included: LC3B (Cell Signaling #2775), p62/SQSTM1 (Cell Signaling #5114), NF-κB p65 (Cell Signaling #8242), Phospho-NF-xB p65 (Cell Signaling #3033) and PD-L1 (Abcam, ab213480). The blots were developed by soaking in ECL substrate (Thermo Fisher Scientific). Densitometric analysis of each protein band on the film was quantified by ImageJ software and normalized to the intensity of a corresponding housekeeping protein.
The of the IRIN silicasome on lysosomal alkalization was performed at drug concentrations of 75 µM and 300 µM in KPC cells. Empty silicasomes (in which a 500 µg/mL particle dose is representative of an encapsulated IRIN dose of 300 µM) was included as control. The assessment of LC3B, p62 and PD-L1 immunoblotting and IF staining were performed in KPC cells during treatment with the IRIN silicasome or empty silicasomes, as described for the free drug.

[2] = test system: orthotopic KPC tumor; experiment: Efficacy and immune parameters (IVIS, IHC) in orthotopic KPC tumor model; format: in vivo, mouse
Method: Panels B and C) IHC analysis to determine CRT (panel B) and LC3B (panel C) expression at the orthotopic tumor site. Imaging intensity was quantitatively expressed as fold increase that was normalized to the saline group. Representative IHC images are shown on the right. Bar is 50 µm. Panel D) Quantitative assessment of HMGB 1 release. The IHC images were analyzed by Aperio ImageScope software to determine protein released from the damaged nuclei, as described in FIG. 22. Data are expressed as mean ± SEM, n=3. *, p<0.05; **, p<0.01; ***, p<0.001 (1-way ANOVA followed by a Tukey’s test).
Additional IHC analysis was undertaken using the tumor samples collected in FIG. 5, panel A. Quantitative assessment of: Panel A) the CD8^+/ FoxP3^+ cell ratio; Panel B), perforin; Panel C) granzyme B; Panel D) IFN-γ production; and Panel E) PD-L1 expression. Representative IHC images appear in FIG. 18, panels A-C. Data are expressed as mean ± SEM, n=3. *, p<0.05; **, p<0.01; ***, p<0.001 (1-way ANOVA followed by a Tukey’s test).
Tumor-bearing mice received IV injection to deliver an IRIN dose of 40 mg/kg (free IRIN or IRIN silicasome) per injection every 3 days for a total of 3 administrations. Control animals received saline only. Animals were sacrificed 72 h after the last injection. To confirm the impact on tumor growth, ex vivo bioluminescence imaging was performed to assess image intensity at the primary and metastatic tumor sites. Primary tumors were fixed in 10% formalin, followed by paraffin embedding and sectioning to provide 4 µm slices for IHC analysis in the UCLA Translational Pathology Core Laboratory (TPCL). The slides were scanned and images were assessed by using Aperio ImageScope software (Leica). Primary antibodies to CD8 (#14-0808-82) and FoxP3 (#13-5773-82) were purchased from ThermoFisher; CRT (ab2907), while antibodies to HMGB1 (ab18256), granzyme B (ab4059), perforin (ab16074) and IFN-γ (ab9657) were purchased from Abcam. The antibody to LC-3 (#0231-100/LC3-5F10) was purchased from Nanotools, while the antibody to PD-L1 (#64988) was purchased from Cell Signaling Technology.

CCc1c2c(nc3ccc(OC(=O)N4CCC(N5CCCCC5)CC4)cc13)-c1cc3c(c(=O)n1C2)COC(=O)[C@]3(O)CC [IRIN, Irinotecan hydrochloride trihydrate]
IF staining of LC3B and p62/SQSTM1 complexes ([1]; 24 h, IRIN 300 µM, CQ 32 µM, RAP 100 nM): contemporaneous appearance of fluorescent LC3B puncta as well as p62 protein complexes
PD-L1 expression ([1]; IRIN 300 µM or OX 500 µM, 24 h): robust cell surface expression of PD-L1
autophagy flux (Western blotting of LC3 and p62) ([1]; IRIN 300 µM or OX 500 µM, 24 h): inhibited autophagy flux
phosphorylation of p65 NF-κB subunit ([1]; IRIN 300 µM, 24 hrs): induce the phosphorylation of the p65 (p-p65) subunit of NF-κB
ratio of LC3-II vs. LC3-I expression (immunoblotting) ([1]; IRIN 75-600 µM, 24 h): dose-dependent increase
tumor size by bioluminescence intensity (IVIS) vs saline ([2]; 40 mg/kg IV on days 8, 11, 14, sacrifice day 17): not statistically significant
IFN-γ production in the TME (IHC) ([2]; 40 mg/kg IV x3): significant increase
LC3B staining intensity at tumor site (IHC) ([2]; 40 mg/kg IV x3): significantly increased staining intensity
